These results are taken from patent publication US12570655B2, “Cysteine covalent modifiers of AKT1 and uses thereof” (Terremoto Biosciences, Inc., priority 2023, dated 2026).

Common to all, as to format: cell-based
One assay deals with T1, AKT2 (Homo sapiens, UniProt P31751).
T1 construct: expressed in transfected cells; host or cells: HEK293
Description: Live cell AKT2 target engagement by NanoBRET competitive probe displacement. Particulars: HEK293 cells transfected with kinase-NanoLuciferase fusion, 2 h at 37° C. The procedure, abridged:
(§1)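 HEK293 cells transiently expressing kinase–NanoLuciferase fusions (overnight transfection) were treated with serial compound dilutions plus fluorescent ATP-competitive tracer at ~EC50 concentration for 2 h at 37 °C. BRET ratio E600/E460 measured after substrate and extracellular luciferase inhibitor addition; IC50 from log(inhibitor)–response Hill fit.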

For a further assay, the target named is T2, AKT1 E17K (Homo sapiens, UniProt P31749, E17K).
T2 construct: expressed in transfected cells; host or cells: HEK293
Description: Live cell AKT1 E17K target engagement by NanoBRET competitive probe displacement. Particulars: HEK293 cells transfected with kinase-NanoLuciferase fusion, 2 h at 37° C. The procedure, abridged: as §1
For orientation: BRET reads energy transfer from a luciferase to a nearby fluorophore.

The subject of assay [1] is LAPC4 prostate cancer cells. Description: Antiproliferative effects in LAPC4 cells (CellTiter Glo). The note with it: LAPC4 cells (AKT1 E17K allele), read-out: LAPC4 proliferation IC50. The essentials:
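LAPC4 cells were cultured in IMDM with 12% FBS and 1% P/S, seeded at 1,000 cells/well and exposed to compound dilutions in DMSO. After 72 h, intracellular ATP was measured by CellTiter Glo luminescence, and IC50 values came from a log(inhibitor) vs. response Hill fit.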
In general terms: ATP-based viability assays read luminescence as a measure of living cells.

In a further assay the target is T3, AKT1 WT (Homo sapiens, UniProt P31749).
T3 construct: expressed in transfected cells; host or cells: HEK293
Briefly: Live cell AKT1 WT target engagement by NanoBRET competitive probe displacement. The note with it: HEK293 cells transfected with kinase-NanoLuciferase fusion, 2 h at 37° C. The procedure, abridged: as §1

Like-named read-outs stand apart in the source and are kept apart here. A value given as a limit tells only on which side of the number the result lay.

T1 sequence (P31751 whole entry): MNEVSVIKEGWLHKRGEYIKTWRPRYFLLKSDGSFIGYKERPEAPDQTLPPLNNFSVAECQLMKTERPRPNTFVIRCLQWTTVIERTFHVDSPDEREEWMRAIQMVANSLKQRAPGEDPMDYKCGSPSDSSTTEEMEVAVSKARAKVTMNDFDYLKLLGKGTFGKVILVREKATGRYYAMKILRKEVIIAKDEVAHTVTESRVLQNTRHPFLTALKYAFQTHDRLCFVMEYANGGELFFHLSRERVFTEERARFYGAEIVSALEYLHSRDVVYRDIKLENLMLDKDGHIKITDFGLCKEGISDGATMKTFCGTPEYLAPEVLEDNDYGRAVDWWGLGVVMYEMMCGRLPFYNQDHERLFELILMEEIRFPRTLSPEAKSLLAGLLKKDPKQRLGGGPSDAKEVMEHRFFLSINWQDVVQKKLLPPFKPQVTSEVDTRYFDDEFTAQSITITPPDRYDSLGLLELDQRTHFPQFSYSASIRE
T2 sequence (P31749 whole entry E17K): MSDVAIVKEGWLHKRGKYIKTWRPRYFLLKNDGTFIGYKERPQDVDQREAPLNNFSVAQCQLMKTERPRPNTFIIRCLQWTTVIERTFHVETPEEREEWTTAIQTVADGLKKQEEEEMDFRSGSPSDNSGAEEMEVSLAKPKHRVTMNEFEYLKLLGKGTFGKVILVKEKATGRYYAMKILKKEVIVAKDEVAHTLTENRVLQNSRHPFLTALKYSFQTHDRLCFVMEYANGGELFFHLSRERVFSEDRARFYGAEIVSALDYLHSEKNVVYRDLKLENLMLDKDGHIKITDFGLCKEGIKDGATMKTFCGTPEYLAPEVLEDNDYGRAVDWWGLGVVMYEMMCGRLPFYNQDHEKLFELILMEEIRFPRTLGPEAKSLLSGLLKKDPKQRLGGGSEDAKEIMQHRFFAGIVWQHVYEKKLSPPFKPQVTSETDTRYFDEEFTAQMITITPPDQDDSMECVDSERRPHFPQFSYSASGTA
T3 sequence (P31749 whole entry): as the sequence (P31749 whole entry E17K) above, with K17E counted along it

In the case of `C=CC(=O)N1CCC(N[C@H]2CC(F)c3cc(-n4c(-c5cccnc5N)nc5ccc(-n6cccn6)nc54)ccc32)CC1` (single isomer, unassigned) [Example 234, 1-(4-(((1S,3*)-5-(2-(2-aminopyridin-3-yl)-5-(1H-pyrazol-1-yl)-3H-imidazo[4,5-b]pyridin-3-yl)-3-fluoro-2,3-dihydro-1H-inden-1-yl)amino)piperidin-1-yl)prop-2-en-1-one], the IC50 on AKT2 came to 70.4 nM; on AKT1 E17K, 12.1 nM; in assay [1] (72 h) it was 330 nM; on AKT1 WT it was 317 nM.
`C=C(Cl)C(=O)Nc1ccccc1C(=O)N[C@H]1CCc2cc(-n3c(-c4cccnc4N)nc4ccc(-n5cccn5)nc43)ccc21` [Example 38, (S)-N-(5-(2-(2-aminopyridin-3-yl)-5-(1H-pyrazol-1-yl)-3H-imidazo[4,5-b]pyridin-3-yl)-2,3-dihydro-1H-inden-1-yl)-2-(2-chloroacrylamido)benzamide]: the IC50 on AKT2 was 2090 nM; on AKT1 E17K, 881 nM; in assay [1] (Homo sapiens, LAPC4, 72 h) it was > 10000 nM; at AKT1 WT it was 204 nM.
With `CC(C)(C)/C=C/C(=O)N1CCC(N[C@H]2CCc3cc(-n4c(-c5cccnc5N)nc5ccc(-n6cccn6)nc54)ccc32)CC1` [Example 95, (S,E)-1-(4-((5-(2-(2-aminopyridin-3-yl)-5-(1H-pyrazol-1-yl)-3H-imidazo[4,5-b]pyridin-3-yl)-2,3-dihydro-1H-inden-1-yl)amino)piperidin-1-yl)-4,4-dimethylpent-2-en-1-one], the IC50 turned out to be 1190 nM on AKT2; 312 nM on AKT1 E17K; 677 nM in assay [1] (Homo sapiens, LAPC4, 72 h); 110 nM at AKT1 WT.
On the same counts, the results for `CN(C)C/C=C/C(=O)N1CCC(N[C@H]2CCc3cc(-n4c(-c5cccnc5N)nc5ccc(-n6cccn6)nc54)ccc32)CC1` [Example 34, (2E)-1-(4-{[(1S)-5-[2-(2-aminopyridin-3-yl)-5-(pyrazol-1-yl)imidazo[4,5-b]pyridin-3-yl]-2,3-dihydro-1H-inden-1-yl]amino}piperidin-1-yl)-4-(dimethylamino)but-2-en-1-one] are 1200 nM, 194 nM, 398 nM and 55.1 nM.
As for `C=CC(=O)N1CCC(N[C@H]2CCc3cc(-n4c(-c5cccnc5N)nc5ccc(OC6CC6)nc54)ccc32)CC1` [Example 198, 1-(4-{[(1S)-5-[2-(2-aminopyridin-3-yl)-5-cyclopropoxyimidazo[4,5-b]pyridin-3-yl]-2,3-dihydro-1H-inden-1-yl]amino}piperidin-1-yl)prop-2-en-1-one], the IC50 is 27 nM at AKT2; 16 nM on AKT1 E17K; 461 nM in assay [1] (Homo sapiens, LAPC4, 72 h); 835 nM at AKT1 WT.
As to `C#CC1CC(N[C@H]2CCc3cc(-n4c(-c5cccnc5N)nc5ccc(-n6cccn6)nc54)ccc32)CCN1C(=O)C=C` (single isomer, unassigned) [Example 114, 1-((2*,4*)-4-(((S)-5-(2-(2-aminopyridin-3-yl)-5-(1H-pyrazol-1-yl)-3H-imidazo[4,5-b]pyridin-3-yl)-2,3-dihydro-1H-inden-1-yl)amino)-2-ethynylpiperidin-1-yl)prop-2-en-1-one], the IC50 is 21.9 nM at AKT2, 8.34 nM on AKT1 E17K, 12.5 nM in assay [1] (72 h) and 8.56 nM on AKT1 WT.
`C=CC(=O)N1CCC(N[C@@H]2c3ccc(-n4c(-c5cccnc5N)nc5ccc(-n6cccn6)nc54)cc3C[C@@H]2F)CC1` [Example 76, 1-(4-(((1R,2S)-5-(2-(2-aminopyridin-3-yl)-5-(1H-pyrazol-1-yl)-3H-imidazo[4,5-b]pyridin-3-yl)-2-fluoro-2,3-dihydro-1H-inden-1-yl)amino)piperidin-1-yl)prop-2-en-1-one]: the IC50 at AKT2 stood at 232 nM; at AKT1 E17K, 60.1 nM; in assay [1] (Homo sapiens, LAPC4, 72 h), 369 nM; at AKT1 WT, 23.3 nM.
Take `C=CC(=O)N1CC(N2CCC(N[C@H]3CCc4cc(-n5c(-c6cccnc6N)nc6ccc(-n7cccn7)nc65)ccc43)CC2)C1` [Example 158, (S)-1-(3-(4-((5-(2-(2-aminopyridin-3-yl)-5-(1H-pyrazol-1-yl)-3H-imidazo[4,5-b]pyridin-3-yl)-2,3-dihydro-1H-inden-1-yl)amino)piperidin-1-yl)azetidin-1-yl)prop-2-en-1-one]: the IC50 at AKT2 was determined as 1870 nM; on AKT1 E17K it was 358 nM; in assay [1] (Homo sapiens, LAPC4, 72 h), 1090 nM; on AKT1 WT, 72.6 nM.
As to `C=CC(=O)NC1CCC(N[C@H]2CCc3cc(-n4c(-c5cccnc5N)nc5ccc(-n6cccn6)nc54)ccc32)CC1` (single isomer, unassigned) [Example 47, N-((1*,4*)-4-(((S)-5-(2-(2-aminopyridin-3-yl)-5-(1H-pyrazol-1-yl)-3H-imidazo[4,5-b]pyridin-3-yl)-2,3-dihydro-1H-inden-1-yl)amino)cyclohexyl)acrylamide], the IC50 came to 2570 nM on AKT2, 548 nM on AKT1 E17K, 4270 nM in assay [1] (72 h) and 200 nM on AKT1 WT.
Turning to `C=CC(=O)N(C)Cc1ccccc1C(=O)N[C@H]1CCc2cc(-n3c(-c4cccnc4N)nc4ccc(-n5cccn5)nc43)ccc21` [Example 265, (S)-N-(5-(2-(2-aminopyridin-3-yl)-5-(1H-pyrazol-1-yl)-3H-imidazo[4,5-b]pyridin-3-yl)-2,3-dihydro-1H-inden-1-yl)-2-((N-methylacrylamido)methyl)benzamide], the IC50 on AKT2 was determined as 24.6 nM; on AKT1 E17K, 10.2 nM; in assay [1] (Homo sapiens, LAPC4, 72 h), 101 nM; at AKT1 WT, 89.6 nM.
`C=CC(=O)N1CCC(N[C@H]2CCc3cc(-n4c(-c5cccnc5N)nc5ccc(C6CC6)nc54)ccc32)C(C)C1` (single isomer, unassigned) [Example 232, 1-((3*,4*)-4-(((S)-5-(2-(2-aminopyridin-3-yl)-5-cyclopropyl-3H-imidazo[4,5-b]pyridin-3-yl)-2,3-dihydro-1H-inden-1-yl)amino)-3-methylpiperidin-1-yl)prop-2-en-1-one]: the IC50 at AKT2 is 168 nM; at AKT1 E17K, 20.8 nM; in assay [1] (72 h), 651 nM; on AKT1 WT, 1080 nM.
Turning to `C=CC(=O)N1CCC(N[C@@H]2c3ccc(-n4c(-c5cccnc5N)nc5ccc(-n6cccn6)nc54)cc3CC2OC)CC1` (single isomer, unassigned) [Example 163, 1-(4-(((1R,2*)-5-(2-(2-aminopyridin-3-yl)-5-(1H-pyrazol-1-yl)-3H-imidazo[4,5-b]pyridin-3-yl)-2-methoxy-2,3-dihydro-1H-inden-1-yl)amino)piperidin-1-yl)prop-2-en-1-one], the IC50 on AKT2 was determined as 1910 nM; on AKT1 E17K, 642 nM; in assay [1] (72 h), 879 nM; on AKT1 WT it was 71.7 nM.
For the molecule `C=CS(=O)(=O)N1CCC(N[C@H]2CCc3cc(-n4c(-c5cccnc5N)nc5ccc(-n6cccn6)nc54)ccc32)CC1` [Example 61, 3-{3-[(1S)-1-{[1-(ethenesulfonyl)piperidin-4-yl]amino}-2,3-dihydro-1H-inden-5-yl]-5-(pyrazol-1-yl)imidazo[4,5-b]pyridin-2-yl}pyridin-2-amine], the IC50 turned out to be 52.4 nM at AKT2; 28.6 nM at AKT1 E17K; 72.4 nM in assay [1] (Homo sapiens, LAPC4, 72 h); 19 nM at AKT1 WT.
For the molecule `C=CC(=O)N1CCC(N[C@H]2CCc3cc(-n4c(-c5cccnc5N)nc5ccc(-n6cccn6)nc54)ccc32)C(C)C1` (single isomer, unassigned) [Example 101, 1-((3*,4*)-4-(((S)-5-(2-(2-aminopyridin-3-yl)-5-(1H-pyrazol-1-yl)-3H-imidazo[4,5-b]pyridin-3-yl)-2,3-dihydro-1H-inden-1-yl)amino)-3-methylpiperidin-1-yl)prop-2-en-1-one], the IC50 was found to be 290 nM on AKT2, 82.3 nM at AKT1 E17K, 270 nM in assay [1] (72 h) and 18.3 nM at AKT1 WT.
Regarding `C=CC(=O)N1CCC(N[C@H]2CCc3cc(-n4c(-c5cccnc5N)nc5ccc(N6CCC(F)(F)CC6)nc54)ccc32)CC1` [Example 186, 1-(4-{[(1S)-5-[2-(2-aminopyridin-3-yl)-5-(4,4-difluoropiperidin-1-yl)imidazo[4,5-b]pyridin-3-yl]-2,3-dihydro-1H-inden-1-yl]amino}piperidin-1-yl)prop-2-en-1-one], the IC50 at AKT2 was found to be 954 nM; at AKT1 E17K, 30.6 nM; in assay [1] (Homo sapiens, LAPC4, 72 h), 801 nM; on AKT1 WT, 877 nM.
On the same counts, the results for `C=CC(=O)Nc1ccc(F)cc1C(=O)N[C@H]1CCc2cc(-n3c(-c4cccnc4N)nc4ccc(-n5cccn5)nc43)ccc21` [Example 20, N-[(1S)-5-[2-(2-aminopyridin-3-yl)-5-(pyrazol-1-yl)imidazo[4,5-b]pyridin-3-yl]-2,3-dihydro-1H-inden-1-yl]-5-fluoro-2-(prop-2-enamido)benzamide] are 20.2 nM, 9.64 nM, 18.3 nM and 7.5 nM.
`C=CC(=O)Nc1cc(C(F)F)ccc1C(=O)N[C@H]1CCc2cc(-n3c(-c4cccnc4N)nc4ccc(-n5cccn5)nc43)ccc21` [Example 43, (S)-2-acrylamido-N-(5-(2-(2-aminopyridin-3-yl)-5-(1H-pyrazol-1-yl)-3H-imidazo[4,5-b]pyridin-3-yl)-2,3-dihydro-1H-inden-1-yl)-4-(difluoromethyl)benzamide]: the IC50 is > 10000 nM on AKT2; > 1000 nM at AKT1 E17K; > 10000 nM in assay [1] (Homo sapiens, LAPC4, 72 h); 317 nM at AKT1 WT.
